The values that follow come from PubChem BioAssay (NCI).

Each structure is given as a SMILES string.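 A five-concentration, 48-hour dose response in 96-well plates underlies each endpoint, interpolated linearly between surrounding concentrations. TGI: total growth inhibition.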

Test systems include UACC-62 melanoma; SF-295 CNS; OVCAR-3 ovarian; SK-MEL-28 melanoma; SN12C renal; T-47D breast; M14 melanoma; OVCAR-5 ovarian; UACC-257 melanoma; HCC-2998 colon.
What all share (test): inhibition of tumour cell growth, NCI panel, 48 h

For the compound `COc1ccc(NC(=S)NC(=O)c2ccc3c(c2)Sc2ccccc2O3)c([N+](=O)[O-])c1`, the TGI is more than 100 µM in the assay with UACC-62 melanoma; more than 100 µM in the assay on SF-295 CNS; 58.5 µM in the assay with OVCAR-3 ovarian; more than 100 µM in the assay on SK-MEL-28 melanoma; more than 100 µM with SN12C renal; more than 100 µM in the assay on T-47D breast. Besides, the TGI with M14 melanoma, with OVCAR-5 ovarian and in the assay with UACC-257 melanoma was more than 100 µM throughout.
On to `COc1cc(NC(C)=O)ccc1C(=O)NN1C(=O)/C(=C/c2ccco2)N=C1c1ccccc1`, for which the TGI in the assay on UACC-62 melanoma, in the assay on SF-295 CNS, with OVCAR-3 ovarian, in the assay on SK-MEL-28 melanoma, in the assay on SN12C renal and in the assay with T-47D breast was more than 50 µM throughout. The TGI with M14 melanoma and in the assay with OVCAR-5 ovarian was more than 50 µM each time.
For `COc1ccc(CC2COc3cc(O)cc(O)c3C2=O)cc1O` (stereo not drawn), the TGI is more than 100 µM in the assay on UACC-62 melanoma; 24.1 µM in the assay with SF-295 CNS; 6.87 µM in the assay on OVCAR-3 ovarian; more than 100 µM in the assay on SK-MEL-28 melanoma; more than 100 µM in the assay on SN12C renal; more than 100 µM in the assay on T-47D breast. Besides, the TGI in the assay on M14 melanoma, with OVCAR-5 ovarian and with UACC-257 melanoma was more than 100 µM each time.
With `O=c1[nH]c(=O)n(C2CC(O)C(CO)O2)cc1OCc1ccccc1` (stereo not drawn), the TGI in the assay on UACC-62 melanoma, with OVCAR-3 ovarian, in the assay with SK-MEL-28 melanoma, in the assay with SN12C renal, with T-47D breast and in the assay on M14 melanoma was more than 100 µM each time. The TGI in the assay with OVCAR-5 ovarian and in the assay on UACC-257 melanoma was more than 100 µM throughout.
Take `O=c1cc(N2CCCC2)[nH]c(=O)n1-c1ccccc1`: the TGI in the assay with SF-295 CNS, in the assay on SK-MEL-28 melanoma, with SN12C renal, with HCC-2998 colon, with M14 melanoma and in the assay with OVCAR-5 ovarian was more than 100 µM each time. In the assay with UACC-257 melanoma, this compound showed a TGI of more than 100 µM.
Consider `CCOP(=O)(/C=C\n1ccc(N)nc1=O)OCC`, for which the TGI with UACC-62 melanoma, in the assay with SF-295 CNS, in the assay with OVCAR-3 ovarian, with SK-MEL-28 melanoma, with SN12C renal and with T-47D breast was more than 100 µM in each case. Besides, the TGI in the assay with M14 melanoma, in the assay on OVCAR-5 ovarian and with UACC-257 melanoma was more than 100 µM in each case.
For `CC12CCCC3(CC(=O)C(C)(C)C3C(=O)C1)C2` (stereo not drawn), the TGI with UACC-62 melanoma, in the assay on SF-295 CNS, with OVCAR-3 ovarian, in the assay with SK-MEL-28 melanoma, in the assay on SN12C renal and in the assay on T-47D breast was more than 100 µM in each case. Also, the TGI with M14 melanoma, in the assay with OVCAR-5 ovarian and with UACC-257 melanoma was more than 100 µM each time.
With `CCOC(=O)/C(O)=C1\C(=O)N(C)C(=O)C1c1cccc(OC)c1` (stereo not drawn), the TGI with UACC-62 melanoma was more than 100 µM; in the assay on SF-295 CNS it was more than 100 µM; in the assay with OVCAR-3 ovarian, more than 82.1 µM; in the assay on SK-MEL-28 melanoma it was more than 100 µM; in the assay with SN12C renal, more than 100 µM; in the assay with HCC-2998 colon it was more than 100 µM. In addition, the TGI with OVCAR-5 ovarian and in the assay with UACC-257 melanoma was more than 100 µM each time.
`CC(=O)OC1C(COC(=O)c2ccccc2)OC(Nc2ncc(-c3ccc(Br)cc3)s2)C(OC(=O)c2ccccc2)C1OC(=O)c1ccccc1` (stereo not drawn): the TGI with UACC-62 melanoma, in the assay with SF-295 CNS, in the assay with OVCAR-3 ovarian, with SK-MEL-28 melanoma, in the assay with SN12C renal and in the assay on T-47D breast was more than 100 µM throughout. For the same compound, the TGI with M14 melanoma, in the assay with OVCAR-5 ovarian and in the assay with UACC-257 melanoma was more than 100 µM throughout.
With `CCCCCCCCCc1nn2c(Cc3ccccc3)nnc2s1`, the TGI worked out at 37.7 µM in the assay with UACC-62 melanoma; 45.6 µM with SF-295 CNS; 37 µM in the assay with OVCAR-3 ovarian; 33.8 µM with SK-MEL-28 melanoma; 32.8 µM with SN12C renal; 97.5 µM in the assay on T-47D breast. Moreover, the figures for the TGI in the assay on M14 melanoma, with OVCAR-5 ovarian and in the assay on UACC-257 melanoma were 38.6 µM, 29.6 µM and 54.1 µM, respectively.
Regarding `Cc1c2c(OCC3CCCCO3)nn(C)c(=O)c2c(C)n1-c1ccccc1` (stereo not drawn), the TGI came to 31 µM in the assay with UACC-62 melanoma; 31.4 µM with SF-295 CNS; 33.3 µM in the assay with OVCAR-3 ovarian; 40.6 µM in the assay on SN12C renal; 70.3 µM with T-47D breast; 29.4 µM in the assay on HCC-2998 colon. The TGI in the assay with M14 melanoma is 34.9 µM; in the assay with OVCAR-5 ovarian, 35.9 µM; in the assay on UACC-257 melanoma it was 34.9 µM.
As to `COc1cc2ccc1OCc1cccc(n1)COc1ccc(cc1OC)C=Nc1ccc(cc1)N=C2`, the TGI with UACC-62 melanoma, in the assay on SF-295 CNS, in the assay on OVCAR-3 ovarian, with SN12C renal, in the assay on T-47D breast and in the assay on HCC-2998 colon was more than 100 µM in each case. The TGI in the assay with M14 melanoma, in the assay with OVCAR-5 ovarian and with UACC-257 melanoma was more than 100 µM throughout.
As for `O=C1CSC2=NC3=C(COC/C3=C\c3ccc(Br)cc3)C(c3ccc(Br)cc3)N12` (stereo not drawn), the TGI with UACC-62 melanoma, in the assay with SF-295 CNS, in the assay on OVCAR-3 ovarian, in the assay on SN12C renal, in the assay with T-47D breast and in the assay with HCC-2998 colon was more than 100 µM throughout. Also, the TGI in the assay on M14 melanoma was 94.6 µM; in the assay on OVCAR-5 ovarian, more than 100 µM; with UACC-257 melanoma, more than 100 µM.
In the case of `CN(C)CCC(=O)/C=C\c1ccccc1`, the TGI in the assay on UACC-62 melanoma was 31.3 µM; with SF-295 CNS it was 45.5 µM; in the assay with OVCAR-3 ovarian, 32.2 µM; in the assay on SK-MEL-28 melanoma, 30.9 µM; in the assay on SN12C renal, 30.7 µM; in the assay with M14 melanoma, 30.4 µM. Also, the figures for the TGI with OVCAR-5 ovarian and in the assay on UACC-257 melanoma were 35.7 µM and 31.5 µM, respectively.
As to `C[C@H]1SC(c2ccc(Cl)cc2Cl)N(NC(=O)c2ccncc2)C1=O` (stereo partly drawn), the TGI with UACC-62 melanoma, in the assay on SF-295 CNS, with OVCAR-3 ovarian, with SK-MEL-28 melanoma, in the assay on SN12C renal and in the assay with T-47D breast was more than 100 µM throughout. For the same compound, the TGI in the assay on M14 melanoma was 69.9 µM; in the assay on OVCAR-5 ovarian it was more than 100 µM.
